What was measured:
wheat = test: Test B pre/postemergence wheat; format: in vivo, Triticum aestivum
Procedure, shortened: (§1)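 Test chemicals in a non-phytotoxic solvent mixture with surfactant were sprayed preemergence onto planted seeds and postemergence onto plants 2 to 18 cm tall (1- to 4-leaf stage). After twelve to sixteen days in a greenhouse, injury was visually rated against untreated controls from 0 (no effect) to 10 (complete control).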

giant foxtail = test: Test B pre/postemergence giant foxtail; format: in vivo, Setaria faberii
Procedure, shortened: as §1

soybean = test: Test B pre/postemergence soybean; format: in vivo, Glycine max
Procedure, shortened: as §1

cocklebur = test: Test B pre/postemergence cocklebur; format: in vivo, Xanthium strumarium
Procedure, shortened: as §1

wild oat = test: Test B pre/postemergence wild oat; format: in vivo, Avena fatua
Procedure, shortened: as §1

bedstraw = test: Test B pre/postemergence bedstraw; format: in vivo, Galium aparine
Procedure, shortened: as §1

crabgrass = test: Test B pre/postemergence crabgrass; format: in vivo, Digitaria sanguinalis
Procedure, shortened: as §1

surinam grass = test: Test B pre/postemergence surinam grass; format: in vivo, Brachiaria decumbens
Procedure, shortened: as §1

blackgrass = test: Test B pre/postemergence blackgrass; format: in vivo, Alopecurus myosuroides
Procedure, shortened: as §1

corn = test: Test B pre/postemergence corn; format: in vivo, Zea mays
Procedure, shortened: as §1

pigweed = test: Test B pre/postemergence pigweed; format: in vivo, Amaranthus retroflexus
Procedure, shortened: as §1

purple nutsedge = test: Test B pre/postemergence purple nutsedge; format: in vivo, Cyperus rotundus
Procedure, shortened: as §1

morningglory = test: Test B pre/postemergence morningglory; format: in vivo, Ipomoea hederacea
Procedure, shortened: as §1

velvetleaf = test: Test B pre/postemergence velvetleaf; format: in vivo, Abutilon theophrasti
Procedure, shortened: as §1

sugar beet = test: Test B pre/postemergence sugar beet; format: in vivo, Beta vulgaris
Procedure, shortened: as §1

rape = test: Test B pre/postemergence rape; format: in vivo, Brassica napus
Procedure, shortened: as §1

[1] = Postemergence, Rate 62 g/ha, scale of 0 to 10, 0 is no effect, 10 is complete control
[2] = Postemergence, Rate 500 g/ha, scale 0 to 10, 0 is no effect, 10 is complete control
[3] = Preemergence, Rate 125 g/ha, scale 0 to 10, 0 is no effect, 10 is complete control
[4] = Rate 250 g/ha, Postemergence, scale of 0 to 10 where 0 is no effect and 10 is complete control
[5] = Postemergence, Rate 125 g/ha, scale 0 to 10, 0 is no effect, 10 is complete control
[6] = Preemergence, Rate 62 g/ha, scale 0 to 10 (0 no effect, 10 complete control)
[7] = Preemergence, Rate 500 g/ha, scale of 0 to 10 where 0 is no effect and 10 is complete control

## CCC(=O)Cn1c(=O)on(C(=O)N(c2ccc(Cl)cc2)C(C)C)c1=O [Compound 553]
wheat; [1]
  Wheat plant response rating: 0
wheat; [2]
  Plant response rating, Wheat: 3
wheat; [3]
  Wheat plant response rating: 0
wheat; Preemergence, Rate 250 g/ha
  Wheat plant response rating (0 to 10 scale): 0
wheat; [4]
  Plant response rating, Wheat: 0
Giant foxtail; [1]
  Giant foxtail plant response rating: 0
Giant foxtail; [5]
  Giant foxtail plant response rating: 7
Giant foxtail; [2]
  Plant response rating, Giant foxtail: 7
Giant foxtail; [6]
  Giant foxtail plant response rating: 10
Giant foxtail; [3]
  Giant foxtail plant response rating: 10
Giant foxtail; Preemergence, Rate 250 g/ha
  Giant foxtail plant response rating (0 to 10 scale): 10
Giant foxtail; [7]
  Giant foxtail plant response rating: 10
Giant foxtail; [4]
  Plant response rating, Giant foxtail: 6
soybean; [1]
  Soybean plant response rating: 1
soybean; [6]
  Soybean plant response rating: 0
soybean; [3]
  Soybean plant response rating: 0
soybean; Preemergence, Rate 250 g/ha
  Soybean plant response rating (0 to 10 scale): 0
soybean; [7]
  Soybean plant response rating: 3
soybean; [4]
  Plant response rating, Soybean: 3
cocklebur; [1]
  Cocklebur plant response rating: 0
cocklebur; [2]
  Plant response rating, Cocklebur: 2
cocklebur; [3]
  Cocklebur plant response rating: 0
cocklebur; Preemergence, Rate 250 g/ha
  Cocklebur plant response rating (0 to 10 scale): 0
cocklebur; [7]
  Cocklebur plant response rating: 10
cocklebur; [4]
  Plant response rating, Cocklebur: 0
Wild oat; [1]
  Wild oats plant response rating: 0
Wild oat; [2]
  Plant response rating, Wild oats: 2
Wild oat; [6]
  Wild oats plant response rating: 0
Wild oat; [3]
  Wild oats plant response rating: 0
Wild oat; Preemergence, Rate 250 g/ha
  Wild oats plant response rating (0 to 10 scale): 3
Wild oat; [4]
  Plant response rating, Wild oats: 2
bedstraw; [1]
  Bedstraw plant response rating: 0
bedstraw; [5]
  Bedstraw plant response rating: 2
bedstraw; [2]
  Plant response rating, Bedstraw: 7
bedstraw; [6]
  Bedstraw plant response rating: 0
bedstraw; [3]
  Bedstraw plant response rating: 0
bedstraw; Preemergence, Rate 250 g/ha
  Bedstraw plant response rating (0 to 10 scale): 2
bedstraw; [7]
  Bedstraw plant response rating: 10
bedstraw; [4]
  Plant response rating, Bedstraw: 2
crabgrass; [1]
  Crabgrass plant response rating: 0
crabgrass; [5]
  Crabgrass plant response rating: 3
crabgrass; [2]
  Plant response rating, Crabgrass: 9
crabgrass; [6]
  Crabgrass plant response rating: 10
crabgrass; [3]
  Crabgrass plant response rating: 9
crabgrass; Preemergence, Rate 250 g/ha
  Crabgrass plant response rating (0 to 10 scale): 10
crabgrass; [7]
  Crabgrass plant response rating: 10
crabgrass; [4]
  Plant response rating, Crabgrass: 8
Surinam grass; [1]
  B. signalgrass plant response rating: 0
Surinam grass; [5]
  B. signalgrass plant response rating: 0
Surinam grass; [2]
  Plant response rating, B. signalgrass: 5
Surinam grass; [6]
  B. signalgrass plant response rating: 6
Surinam grass; [3]
  B. signalgrass plant response rating: 9
Surinam grass; Preemergence, Rate 250 g/ha
  B. signalgrass plant response rating (0 to 10 scale, 0 is no effect, 10 is complete control): 9
Surinam grass; [7]
  B. signalgrass plant response rating: 8
Surinam grass; [4]
  Plant response rating, B. signalgrass: 3
blackgrass; [1]
  Blackgrass plant response rating: 0
blackgrass; [5]
  Blackgrass plant response rating: 0
blackgrass; [2]
  Plant response rating, Blackgrass: 7
blackgrass; [6]
  Blackgrass plant response rating: 7
blackgrass; [3]
  Blackgrass plant response rating: 7
blackgrass; Preemergence, Rate 250 g/ha
  Blackgrass plant response rating (0 to 10 scale): 7
blackgrass; [4]
  Plant response rating, Blackgrass: 3
corn; [1]
  Corn plant response rating: 0
corn; [5]
  Corn plant response rating: 0
corn; [2]
  Plant response rating, Corn: 0
corn; [6]
  Corn plant response rating: 0
corn; [3]
  Corn plant response rating: 0
corn; Preemergence, Rate 250 g/ha
  Corn plant response rating (0 to 10 scale): 0
corn; [7]
  Corn plant response rating: 3
corn; [4]
  Plant response rating, Corn: 0
pigweed; [1]
  Redroot pigweed plant response rating: 0
pigweed; [2]
  Plant response rating, Redroot pigweed: 0
pigweed; [6]
  Redroot pigweed plant response rating: 0
pigweed; [3]
  Redroot pigweed plant response rating: 7
pigweed; Preemergence, Rate 250 g/ha
  Redroot pigweed plant response rating (0 to 10 scale): 9
pigweed; [4]
  Plant response rating, Redroot pigweed: 0
Purple nutsedge; [1]
  Nutsedge plant response rating: 0
Purple nutsedge; [5]
  Nutsedge plant response rating: 0
Purple nutsedge; [6]
  Nutsedge plant response rating: 0
Purple nutsedge; [3]
  Nutsedge plant response rating: 0
Purple nutsedge; Preemergence, Rate 250 g/ha
  Nutsedge plant response rating (0 to 10 scale): 0
Purple nutsedge; [7]
  Nutsedge plant response rating: 0
Purple nutsedge; [4]
  Plant response rating, Nutsedge: 0
morningglory; [1]
  Morningglory plant response rating: 0
morningglory; [5]
  Morningglory plant response rating: 0
morningglory; [2]
  Plant response rating, Morningglory: 0
morningglory; [6]
  Morningglory plant response rating: 0
morningglory; [3]
  Morningglory plant response rating: 0
morningglory; Preemergence, Rate 250 g/ha
  Morningglory plant response rating (0 to 10 scale): 0
morningglory; [7]
  Morningglory plant response rating: 2
morningglory; [4]
  Plant response rating, Morningglory: 0
velvetleaf; [6]
  Velvetleaf plant response rating: 0
velvetleaf; [3]
  Velvetleaf plant response rating: 0
velvetleaf; Preemergence, Rate 250 g/ha
  Velvetleaf plant response rating (0 to 10 scale): 0
velvetleaf; [7]
  Velvetleaf plant response rating: 2
velvetleaf; [4]
  Plant response rating, Velvetleaf: 5
Sugar beet; [1]
  Sugarbeets plant response rating: 0
Sugar beet; [2]
  Plant response rating, Sugarbeets: 2
Sugar beet; [6]
  Sugarbeets plant response rating: 0
Sugar beet; [3]
  Sugarbeets plant response rating: 3
Sugar beet; Preemergence, Rate 250 g/ha
  Sugarbeets plant response rating (0 to 10 scale): 3
Sugar beet; [4]
  Plant response rating, Sugarbeets: 0
rape; [1]
  Rape plant response rating: 2
rape; [5]
  Rape plant response rating: 6
rape; [6]
  Rape plant response rating: 0
rape; [3]
  Rape plant response rating: 3
rape; Preemergence, Rate 250 g/ha
  Rape plant response rating (0 to 10 scale): 3
rape; [4]
  Plant response rating, Rape: 7

— patent publication US6737383B1, “Herbicidal oxadiazolidines” (priority 1999, dated 2004)
